Assay results from publication PMC8283790, “Inhibitory Effect of Puroindoline Peptides on Campylobacter jejuni Growth and Biofilm Formation” (Frontiers in Microbiology, 2021).
In brackets after ≈: the same amount, converted by molar mass. Read-outs that look alike come from different tables or passages of the source. Where a SMILES comes first, the peptide text is derived from it.

How the values were obtained:
[1] = system: C. jejuni strain F38011; assay: microbe, parasite or virus in culture; type: cell-based, Campylobacter jejuni; settings: for MIC: CLSI broth microdilution, MH broth, ~5 × 10^4 bacteria/well, 37°C microaerobic
[2] = system: E. coli O157:H7; type: cell-based, Escherichia coli; settings: CLSI broth microdilution, MH broth, 37°C aerobic, 24 h, OD595
Method: (§1) C. jejuni clinical strains 81-176 and F38011 were cultured every 24 to 48 h on Mueller-Hinton (MH) agar containing 5% citrated bovine blood (MH-blood agar) or in MH broth in a shaking orbital incubator with microaerobic conditions (5% O2, 10% CO2, 85% N2) at 37°C. The generic isolates of E. coli O157:H7, L. monocytogenes, and Salmonella enterica serovar Typhimurium (S. Typhimurium) were cultured on LB agar plates in an aerobic chamber at 37°C, and methicillin-resistant S. aureus (MRSA) were cultured on an MH-blood agar plate in an aerobic chamber at 37°C.
(§2) Two-fold serial dilutions were made. The bacterial cultures were grown overnight in MH broth under the appropriate conditions, pelleted by centrifugation, and suspended in MH broth at 5 × 10^6 CFU/mL. Ten microliters of bacterial suspension (∼5 × 10^4 bacteria) was used to inoculate every well except the media control wells in 96-well microtiter plate. The plate was incubated in an orbital shaker at 37°C in a microaerobic condition for 48 h for C. jejuni strains or in aerobic conditions for 24 h for other bacteria. After incubation, the optical density was determined using a 96-well plate reader (BioTek Instruments Inc., Winooski, VT, United States) at 595 nm (OD595). […] The dose-response curves were created by log-transforming the OD595 readings. […]

[3] = system: S. Typhimurium; type: cell-based, Salmonella enterica serovar Typhimurium; settings: CLSI broth microdilution, MH broth, 37°C aerobic, 24 h, OD595
Method: as §1, §2

[4] = system: MRSA; type: cell-based, Staphylococcus aureus; settings: CLSI broth microdilution, MH broth, 37°C aerobic, 24 h, OD595
Method: as §1, §2

[5] = system: L. monocytogenes; type: cell-based, Listeria monocytogenes; settings: CLSI broth microdilution, MH broth, 37°C aerobic, 24 h, OD595
Method: as §1, §2

[6] = system: sheep red blood cells (SRBCs); assay: Hemolysis assay; type: cell-based; settings: ~10^8 cells/mL, 60 min, 37°C, absorbance 540 nm; 100% = 1% Triton X-100
Method: The potential toxicity of the peptides was determined using a hemolysis assay. Briefly, SRBCs (Hardy Diagnostics, Santa Monica, CA, United States) were washed three times with 1× PBS. Aliquots containing approximately 10^8 cells/mL were incubated with different concentrations of the peptides for 60 min at 37°C in a 96-well tray. The plates were then centrifuged, and the absorbance of each supernatant was measured at 540 nm. Zero hemolysis (blank) and 100% hemolysis were determined in phosphate buffer and 1% Triton X-100, respectively.

[7] = system: C. jejuni strain 81-176; settings: C. jejuni 81-176, 48 h; for MIC: CLSI broth microdilution, MH broth, ~5 × 10^4 bacteria/well, 37°C microaerobic, OD595
[8] = system: INT 407 cells; assay: MTT cell viability assay; type: cell-based, human; settings: for Concentration reducing cell viability (MTT, OD570): INT 407 cells, 24 h
Method: (§3) The toxicity of the puroindoline peptides was assessed using INT 407 epithelial cells (ATCC CCL-6) and SRBCs, as described below. The INT 407 cells (a derivative of HeLa cells) were cultured in Minimal Essential Medium (MEM) (Gibco, Grand Island, NY, United States) supplemented with 10% fetal bovine serum (FBS) and 1 mM sodium pyruvate at 37°C in humidified condition (5% CO2).
The viability of INT 407 cells was assessed by MTT assay according to the manufacturer’s recommendations (Roche Diagnostics, Mannheim, Germany). Briefly, INT 407 cells were seeded into a 96-well plate at a density of 2.5 × 10^4 cells/well in 200 μL of growth media (MEM supplemented by 10% FBS) and incubated for 24 h at 37°C under humidified conditions. Cells were rinsed twice with MEM without FBS, and different concentrations of peptides were added into the well. Triton X-100 was added as a positive control and growth medium only was added as a negative control. After treatment, the cells were incubated for different time points (3, 6, or 24 h) at 37°C in a humidified condition. At the end of each experiment, 100 μL of culture medium was removed into a new 96-well plate, and 25 μL of MTT stock solution was added into each well. The plates were incubated for 4 h at 37°C. Then, 100 μL of the solubilizing solution was added to each well, and the plate was incubated overnight at 37°C. After cooling, the plates were read at 570 nm (OD570) on a BioTek 96-well plate reader.

[9] = system: C. jejuni 81-176 biofilm; assay: Biofilm formation, crystal violet staining; type: cell-based, Campylobacter jejuni; settings: inoculum OD540 0.1, 72 h, 37°C microaerobic, no agitation
[10] = system: C. jejuni strain 81-176; assay: microbe, parasite or virus in culture
[11] = system: INT 407 cells; assay: Lactate dehydrogenase (LDH) cytotoxicity assay; type: cell-based, human
Method: as §3
The cytotoxicity of puroindoline peptides on INT 407 cells was monitored using the lactate dehydrogenase (LDH) activity assay kit (Millipore Sigma, Danvers, MA, United States) following the manufacturer’s guidelines. LDH is released from damaged cells into the medium. Briefly, INT 407 cells were seeded into a 96 well plate at a density of 2.5 × 10^4 cells/well in 200 μL growth media (MEM supplemented by 10% FBS) and incubated for 24 h at 37°C in humidified (5% CO2) conditions. The next day, cells were rinsed twice with MEM without FBS, and different concentrations of peptides were added. Cells were incubated for 3 h, 6 h or 24 h at 37°C. As a positive control, 0.1% Triton X-100 was used. Media only was used as a negative control. In the presence of Triton X-100, cells release maximum LDH. After the appropriate incubation point, the tissue culture plate was centrifuged at 2000 rpm for 5 min. […] Absorbance was recorded at 450 nm (OD450) on a BioTek 96-well plate reader.

[12] = system: blood; settings: blood hemolysis assay; ref Jing et al. (2003); cited from earlier work
Description: (§4) The cytotoxicity and hemolytic activity of PinA has been addressed in this study using human epithelial INT 407 cells and SRBCs. INT 407 cells were chosen for this study as these cells grow rapidly and easy to maintain in culture media. INT 407 cells have been used extensively in C. jejuni research for several decades ([Negretti et al., 2019]). […] The first report on the cytotoxicity of puroindolines was from [Jing et al. (2003)], where th ...

[13] = system: red blood cells; settings: ref Capparelli et al. (2007); cited from earlier work
Description: as §4

[14] = Solubility of the synthetic peptides; type: physicochemical; settings: DMSO and water

Compound	MIC ([1]; 48 h, OD595)	MIC [2]	MIC [3]	MIC [4]	MIC [5]	Concentration showing hemolysis of SRBCs [6]	MIC [7]	Concentration reducing cell viability (MTT, OD570) [8]	Concentration up to which no hemolytic activity was identified [12]	Concentration up to which no hemolytic activity was displayed [13]	other results
CSCC[C@H](NC(=O)[C@@H](N)[C@@H](C)O)C(=O)N[C@@H](CCCCN)C(=O)N[C@@H](CC(=O)O)C(=O)N[C@@H](Cc1ccccc1)C(=O)N1CCC[C@H]1C(=O)N[C@H](C(=O)N[C@H](C(=O)N[C@@H](Cc1c[nH]c2ccccc12)C(=O)N1CCC[C@H]1C(=O)N[C@H](C(=O)NCC(=O)N[C@@H](Cc1c[nH]c2ccccc12)C(=O)N[C@@H](Cc1c[nH]c2ccccc12)C(=O)NCC(=O)NCC(=O)NCC(=O)O)[C@@H](C)O)[C@@H](C)O)C(C)C [PinB mutant] (H-TMKDFPVTWPTGWWGGG-OH)	>512 µg/mL	>512 µg/mL	>512 µg/mL	>512 µg/mL	>512 µg/mL	≥ 256 µg/mL	>512 µg/mL	–	–	–	–
Triton X-100 [reference compound]	–	–	–	–	–	–	–	–	–	–	Cell viability (MTT, OD570), in words [8]: very low absorbance at OD570
CC[C@H]1OC(=O)[C@H](C)[C@@H](O[C@H]2C[C@@](C)(OC)[C@@H](O)[C@H](C)O2)[C@H](C)[C@@H](O[C@@H]2O[C@H](C)C[C@H](N(C)C)[C@H]2O)[C@](C)(O)C[C@@H](C)C(=O)[C@H](C)[C@@H](O)[C@]1(C)O [erythromycin]	–	–	–	–	–	–	–	–	–	–	MIC ([1]; Campylobacter jejuni, 48 h, OD595, read-out: MIC): 0.188 µg/mL (≈ 0.255 µM); IC50 ([1]; Campylobacter jejuni, read-out: IC50 (concentration at which 50% of bacteria is inhibited), broth microdilution, 48 h, ten concentration points, min. three biological replicates): 0.0405 µg/mL (≈ 0.0552 µM); IC90 ([1]; Campylobacter jejuni, read-out: IC90 (90% of maximal inhibitory concentration), from slope of concentration-effect curve, 48 h): 0.0657 µg/mL (≈ 0.0895 µM); MBC ([1]; Campylobacter jejuni, wells spotted on MH agar, 24–48 h, no growth (>99.9% reduction)): 0.25 µg/mL (≈ 0.341 µM); IC10 (10% of maximal inhibitory concentration) ([1]; from slope of concentration-effect curve, 48 h): 0.0249 µg/mL; Concentration inhibiting biofilm formation [9]: ≥ 0.25 µg/mL; IC10 (10% of maximal inhibitory concentration) ([7]; from slope of concentration-effect curve): 0.0254 µg/mL; MBC ([10]; Campylobacter jejuni, 81176): 0.125 µg/mL (≈ 0.17 µM); MIC ([10]; Campylobacter jejuni, 81176, 48 h): 0.125 µg/mL (≈ 0.17 µM); IC50 ([10]; Campylobacter jejuni, 81176, 48 h, read-out: IC50 (concentration at which 50% of bacteria is inhibited)): 0.0415 µg/mL (≈ 0.0565 µM); IC90 ([10]; Campylobacter jejuni, 81176, 48 h, read-out: IC90 (90% of maximal inhibitory concentration)): 0.0677 µg/mL (≈ 0.0922 µM)
CSCC[C@H](NC(=O)[C@@H](N)[C@@H](C)O)C(=O)N[C@@H](CCCCN)C(=O)N[C@@H](CC(=O)O)C(=O)N[C@@H](Cc1ccccc1)C(=O)N1CCC[C@H]1C(=O)N[C@H](C(=O)N[C@H](C(=O)N[C@@H](Cc1c[nH]c2ccccc12)C(=O)N[C@@H](CCCNC(=N)N)C(=O)N[C@@H](Cc1c[nH]c2ccccc12)C(=O)N[C@@H](Cc1c[nH]c2ccccc12)C(=O)N[C@@H](CCCCN)C(=O)N[C@@H](Cc1c[nH]c2ccccc12)C(=O)N[C@@H](Cc1c[nH]c2ccccc12)C(=O)N[C@@H](CCCCN)C(=O)NCC(=O)NCC(=O)O)[C@@H](C)O)C(C)C [PinA] (H-TMKDFPVTWRWWKWWKGG-OH)	–	–	–	–	–	≥ 256 µg/mL	–	256 µg/mL	1000 µg/mL	150 µg/mL	Cytotoxicity (LDH release), in words ([11]; INT 407 cells, 3, 6 and 24 h, MEM without FBS, Triton X-100 at 0.1%): cytotoxic to INT 407 cells at higher concentrations
CSCC[C@H](NC(=O)[C@@H](N)[C@@H](C)O)C(=O)N[C@@H](CCCCN)C(=O)N[C@@H](CC(=O)O)C(=O)N[C@@H](Cc1ccccc1)C(=O)N1CCC[C@H]1C(=O)N[C@H](C(=O)N[C@H](C(=O)N[C@@H](Cc1c[nH]c2ccccc12)C(=O)N1CCC[C@H]1C(=O)N[C@H](C(=O)N[C@@H](CCCCN)C(=O)N[C@@H](Cc1c[nH]c2ccccc12)C(=O)N[C@@H](Cc1c[nH]c2ccccc12)C(=O)N[C@@H](CCCCN)C(=O)NCC(=O)NCC(=O)O)[C@@H](C)O)[C@@H](C)O)C(C)C [PinB] (H-TMKDFPVTWPTKWWKGG-OH)	–	–	–	–	–	≥ 256 µg/mL	–	> 512 µg/mL	1000 µg/mL	50 µg/mL	Concentration showing cytotoxicity (LDH release) ([11]; INT 407 cells, any time point (3, 6, 24 h)): > 512 µg/mL; Solubility (in words) [14]: soluble in DMSO, an organic solvent, but not in water
CSCC[C@H](NC(=O)[C@@H](N)[C@@H](C)O)C(=O)N[C@@H](CCCCN)C(=O)N[C@@H](CC(=O)O)C(=O)N[C@@H](Cc1ccccc1)C(=O)N1CCC[C@H]1C(=O)N[C@H](C(=O)N[C@H](C(=O)N[C@@H](Cc1c[nH]c2ccccc12)C(=O)N[C@@H](CCCNC(=N)N)C(=O)N[C@@H](Cc1c[nH]c2ccccc12)C(=O)NCC(=O)N[C@@H](CCCCN)C(=O)N[C@@H](Cc1c[nH]c2ccccc12)C(=O)NCC(=O)N[C@@H](CCCCN)C(=O)NCC(=O)NCC(=O)O)[C@@H](C)O)C(C)C [PinA mutant] (H-TMKDFPVTWRWGKWGKGG-OH)	>512 µg/mL	>512 µg/mL	>512 µg/mL	>512 µg/mL	>512 µg/mL	≥ 256 µg/mL	>512 µg/mL	–	–	–	–
